Source: PMC7767166, “Imidazole and Imidazolium Antibacterial Drugs Derived from Amino Acids” (Pharmaceuticals, 2020)
Values joined by “and” are separate entries in the source; they are usually repeats but may differ in a detail not shown here. Equal entries are not always repeated. Where two headings read alike, the source gives them in different places.

Key:
[1] = system: Bacillus subtilis 1904-E; assay: Bacterial cell viability assay (Resazurin), MBC; format: cell-based; conditions: read-out: B. subtilis MBC
Method: (§1) The in vitro antibacterial activities of the synthesized compounds were examined against E. coli and B. subtilis. Bacteria were incubated in culture media with varying concentrations of the examined compound and the antibacterial properties were determined by observation of the optical density at 560 nm (bacteriostatic activity) and by the Resazurin cell viability assay (bactericidal activity). The corresponding minimal bactericidal concentration (MBC) and minimum inhibitory concentration (MIC) values that were obtained are summarized in Table 1 (please refer to Table S1 for MIC and MBC values in μM).
(§2) Two bacterial strains were used in the antibacterial assays: Escherichia coli DH5α as a Gram-negative model and Bacillus subtilis 1904-E as a Gram-positive model. Both bacterial strains were donated to our laboratory and can be provided on request by contacting the corresponding authors. Both bacterial strains were incubated at 37 °C and the pre-inoculum incubation time was of 24 h. Liquid Luria-Bertani (LB) medium was used for E. coli DH5α and nutrient broth (NB) for B. subtilis.
(§3) The bacteria cell bank suspensions were thawed and inoculated in the appropriate liquid broth for 24 h at 37 °C with mild agitation. A dilution from these culture solutions was used for the following tests, corresponding to an inoculum of 1 × 10^7 CFU/mL. Stock solutions of all the tested compounds were prepared in DMSO at a concentration of 100 mg/mL, aliquoted, and stored at −20 °C.
(§4) (B) Bacterial cell viability assay: Cell viability was analyzed using a Resazurin (7-Hydroxy-3H-phenoxazin-3-one 10-oxide) assay in a 96-well plate. Once the bacterial cultures of growth inhibition assay had been grown for a total of 24 h, 25 μL of a 0.1 mg/mL resazurin (prepared in LB or NB medium) were added to each well and incubated in the dark at 37 °C for 1 h under stirring. Resazurin has a blue color at the testing pH and turns pink when reduced by the viable bacteria to resorufin. Therefore, pink wells indicate metabolizing bacteria, while blue wells are indicative of bacteria that have lost their ability to convert resazurin to resorufin. Different controls were made in order to corroborate the MBC value obtained by the resazurin assay. The change of color was confirmed at 1, 4, and 24 h after its addition. The viability of bacteria was verified (either confirmed or rejected) by the colony plate-counting method, by seeding 10 μL from the cell culture onto tryptone soy agar plates and observing the presence or absence of bacterial growth after 24 h at 37 °C.

[2] = system: Escherichia coli DH5α; assay: Bacterial cell viability assay (Resazurin), MBC; format: cell-based; conditions: read-out: E. coli MBC
Method: as §1, §2, §3, §4

[3] = system: HEK-293 cells; assay: Cell proliferation assay for cytotoxicity (MTT); format: cell-based, human; conditions: 2 days of incubation
Method: Human embryonic kidney cells, HEK-293, were chosen as a cell model to evaluate the cytotoxicity of the compounds. The HEK-293 cells were incubated in the cell culture medium with varying concentrations of the examined compound and the impact of treatment was measured using the MTT cell viability assay.
Cell culture media for cytotoxicity studies were purchased from Gibco (Grand Island, NY, USA). Fetal bovine serum (FBS) was obtained from HyClone (UT, USA). Supplements and other chemicals not listed in this section were obtained from Sigma Chemical Co. (St. Louis, MO, USA). Plastics for cell culture were supplied by Thermo Scientific BioLite (Madrid, Spain). All tested compounds were dissolved in DMSO at a concentration of 10 mM and stored at −20 °C until use. HEK-293 cell lines were maintained in Dulbecco’s modified Eagle’s medium (DMEM) containing glucose (1 g/L), glutamine (2 mM), penicillin (50 μg/mL), streptomycin (50 μg/mL), and amphotericin B (1.25 μg/mL) supplemented with 10% FBS.
In 96-well plates, 3 × 10^3 HEK-293 cells per well were seeded and incubated with serial dilutions of the tested compounds (from 200 to 0.2 μM) to a total volume of 100 μL of their growth media. The 3-(4,5-dimethylthiazol-2-yl)-2,5-diphenyltetrazolium bromide (MTT; Sigma Chemical Co.) dye reduction assay in 96-well microplates was used, as previously described. After 2 days of incubation (37 °C, 5% CO2 in a humid atmosphere), 10 μL of MTT (5 mg/mL in phosphate-buffered saline, PBS) was added to each well, and the plate was incubated for a further 3 h (37 °C). The supernatant was discarded and replaced by 100 µL of DMSO to dissolve formazan crystals. The absorbance was then read at 540 nm by Multiskan^TM FC microplate reader. For all concentrations of compound, cell viability was expressed as the percentage of the ratio between the mean absorbance of treated cells and the mean absorbance of untreated cells. Three independent experiments were performed, and the IC50 values (i.e., concentration half inhibiting cell proliferation) were graphically determined using GraphPad Prism 4 software.

[4] = system: E. coli and B. subtilis; assay: MBC to MIC ratio (bactericidal vs bacteriostatic); format: cell-based; conditions: from exact MBC and MIC values of Table 1
Description: The Gram-positive cell wall is composed of a thick, multilayered peptidoglycan sheath outside of the cytoplasmic membrane, while the Gram-negative cell wall is composed of an outer membrane linked by lipoproteins to thin, mainly single-layered peptidoglycan. The peptidoglycan is located within the periplasmic space that is created between the outer and inner membranes. […] Compounds with MBC/MIC >4 are considered to be bacteriostatic. In all the cases in which we could obtain exact MBC and MIC values (Table 1, entries 2, 3, 8 and 9), their ratio was equal to or minor than four.

[5] = Solubility in media of the fluorescence studies; format: physicochemical; conditions: water and 1/1 water/bacterial cell culture medium
Method: Fluorescence studies were carried out using MilliQ® water and 1/1 MilliQ® water/bacterial cell culture medium, because with the pure cell culture medium, a strong broad fluorescence emission band was observed precluding an accurate analysis. […] The corresponding CACs obtained in water and in the 1/1 mixture of water/bacterial cell culture medium by fluorescence are shown in Table 2.

[6] = 24 h, Resazurin after 24 h growth, nutrient broth, minimum of three experiments
[7] = mode of at least three experiments
[8] = Resazurin after 24 h growth, LB medium, minimum of three experiments

Structure (SMILES)	MBC [1, 6]	MBC [1, 7]	MBC [2, 8]	MBC [2, 7]	IC50 ([3]; Homo sapiens, HEK293, 48 h)	bactericidal or bacteriostatic (MBC to MIC ratio equal to or less than four = bactericidal) [4]	melting point	IC50 [3]	solubility [5]
CCCCCCCCCCCCNC(=O)[C@H](C(C)C)n1ccnc1 [Compound 1a]	≤ 16 µg/mL	48 µM	> 2000 µg/mL	> 6000 µM	9.6 µM and 3.2 µg/mL	–	–	–	–
CCCCCCCCCCCCNC(=O)[C@H](C(C)C)n1cc[n+](Cc2ccccc2)c1 [Compound 1b]	≤ 16 µg/mL	18 µM	256 µg/mL	581 µM	1.8 µM and 0.8 µg/mL	true bactericidal activity	–	–	–
CCCCCCCCCCCCNC(=O)[C@H](C(C)C)n1cc[n+](Cc2cccc(C[n+]3ccn([C@@H](C(=O)NCCCCCCCCCCCC)C(C)C)c3)c2)c1 [Compound 1c]	32 µg/mL	34 µM	256 µg/mL	269 µM	19 µM and 18 µg/mL	true bactericidal activity	–	–	–
CCCCNC(=O)[C@H](C(C)C)n1ccnc1 [Compound 2a]	> 2000 µg/mL	> 9000 µM	> 2000 µg/mL	> 9000 µM	> 45 µg/mL	–	–	–	–
CCCCNC(=O)[C@H](C(C)C)n1cc[n+](Cc2ccccc2)c1 [Compound 2b]	> 1000 µg/mL	2590 µM	> 2000 µg/mL	> 5000 µM	> 79 µg/mL	–	33 °C	–	–
CCCCNC(=O)[C@H](C(C)C)n1cc[n+](Cc2cccc(C[n+]3ccn([C@@H](C(=O)NCCCC)C(C)C)c3)c2)c1 [Compound 2c]	256 µg/mL	361 µM	> 2000 µg/mL	> 2900 µM	> 142 µg/mL	–	85 °C	–	–
CCCCCCCCCCCCNC(=O)[C@H](Cc1ccccc1)n1ccnc1 [Compound 3a]	≤ 16 µg/mL	42 µM	> 2000 µg/mL	> 5000 µM	19 µM and 7.3 µg/mL	–	56.1 °C	< 36 µM	–
CCCCCCCCCCCCNC(=O)[C@H](Cc1ccccc1)n1cc[n+](Cc2ccccc2)c1 [Compound 3b]	–	7 µM	128 µg/mL	229 µM	109 µM and 61 µg/mL	true bactericidal activity	16 °C	–	–
CCCCCCCCCCCCNC(=O)[C@@H](Cc1ccccc1)n1cc[n+](Cc2cccc(C[n+]3ccn([C@@H](Cc4ccccc4)C(=O)NCCCCCCCCCCCC)c3)c2)c1 [Compound 3c]	64 µg/mL	62 µM	2000 µg/mL	1990 µM	36 µM and 37 µg/mL	true bactericidal activity	60 °C	< 36 µM	solubility problems
